We go through 4 molecules from US11427556B2, “Urea derivatives as inhibitors of ASK1” (Hepagene Therapeutics (HK) Limited, priority 2017, dated 2022).

Molecules are shown by their SMILES.

This experiment deals with T1, Recombinant human ASK1 kinase (Homo sapiens, UniProt Q99683).
T1 construct: purchased Invitrogen Inc
T1 sequence (Q99683 1-1374): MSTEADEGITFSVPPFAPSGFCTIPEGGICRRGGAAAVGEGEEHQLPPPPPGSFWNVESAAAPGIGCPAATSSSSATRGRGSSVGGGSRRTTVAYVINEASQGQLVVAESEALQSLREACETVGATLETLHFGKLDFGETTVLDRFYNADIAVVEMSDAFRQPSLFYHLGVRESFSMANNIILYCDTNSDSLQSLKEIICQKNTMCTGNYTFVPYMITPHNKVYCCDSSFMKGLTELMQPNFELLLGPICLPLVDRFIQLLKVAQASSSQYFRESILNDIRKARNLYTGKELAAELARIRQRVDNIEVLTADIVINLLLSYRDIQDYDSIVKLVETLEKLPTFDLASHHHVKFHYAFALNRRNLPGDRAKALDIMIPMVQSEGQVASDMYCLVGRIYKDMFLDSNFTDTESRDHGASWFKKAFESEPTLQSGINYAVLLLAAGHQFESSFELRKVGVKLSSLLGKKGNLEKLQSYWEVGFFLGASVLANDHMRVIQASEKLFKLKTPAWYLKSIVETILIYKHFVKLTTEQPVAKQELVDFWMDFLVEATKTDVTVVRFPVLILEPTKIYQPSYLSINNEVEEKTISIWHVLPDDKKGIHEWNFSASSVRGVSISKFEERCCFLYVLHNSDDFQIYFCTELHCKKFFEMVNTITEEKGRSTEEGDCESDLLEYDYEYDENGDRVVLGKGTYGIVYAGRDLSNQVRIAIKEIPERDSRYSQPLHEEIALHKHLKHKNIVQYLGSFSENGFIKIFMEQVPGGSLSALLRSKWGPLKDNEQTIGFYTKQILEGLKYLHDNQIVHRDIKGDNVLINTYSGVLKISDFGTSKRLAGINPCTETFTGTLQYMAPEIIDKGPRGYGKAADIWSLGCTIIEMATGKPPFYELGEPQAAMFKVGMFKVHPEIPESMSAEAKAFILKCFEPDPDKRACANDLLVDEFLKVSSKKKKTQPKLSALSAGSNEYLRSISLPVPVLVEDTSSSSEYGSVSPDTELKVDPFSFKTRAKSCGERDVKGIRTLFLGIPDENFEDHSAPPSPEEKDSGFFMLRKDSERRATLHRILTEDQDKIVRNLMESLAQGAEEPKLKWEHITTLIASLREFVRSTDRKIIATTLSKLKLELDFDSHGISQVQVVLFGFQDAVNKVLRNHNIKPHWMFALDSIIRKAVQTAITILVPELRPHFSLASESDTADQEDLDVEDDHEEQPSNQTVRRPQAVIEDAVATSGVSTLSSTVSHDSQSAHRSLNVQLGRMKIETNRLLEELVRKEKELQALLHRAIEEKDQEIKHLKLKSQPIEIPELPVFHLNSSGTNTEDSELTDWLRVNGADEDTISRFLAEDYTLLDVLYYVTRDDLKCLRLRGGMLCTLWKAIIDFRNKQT
Kind of experiment: ASK1 kinase HTRF assay (HTRF KinEASE-STK, phosphorylation of biotinylated peptide substrate). Format: biochemical. To be noted: 3 nM ASK1 kinase, 1 uM STK-substrate-biotin, HTRF detection; read-out: EC50. The gist of the method:
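HTRF KinEASE-STK read-out of biotinylated peptide phosphorylation. Compound incubated with 3 nM ASK1 and 1 uM STK-substrate-biotin in kinase buffer containing 5 mM MgCl2 and 1 mM DTT.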
For orientation: EC50 means the concentration at which the effect is half-maximal. As for `C[C@H](CO)n1cnnc1-c1cccc(-n2ccn(-c3ccc(-c4ccccc4)cn3)c2=O)n1` [III-07], the EC50 is less than 50 nM. The result for `C[C@H](CO)n1cnnc1-c1cccc(-n2ccn(-c3cc(-c4ccccc4)ccn3)c2=O)n1` [III-08] reads 50 to 500 nM; that for `C[C@H](CO)n1cnnc1-c1cccc(-n2ccn(-c3ccc(N4CCOCC4)cn3)c2=O)n1` [III-10], less than 50 nM; that for `CC(C)n1cnnc1-c1cccc(NC(=S)Nc2ccccn2)n1` [VI-01, 1-(6-(4-Isopropyl-4H-1,2,4-triazol-3-yl)pyridin-2-yl)-3-(pyridin-2-yl)thiourea], 50 to 500 nM.
